Legend:
Assay type in all cases: physicochemical
[1] = Fluorescence emission of solid drug samples exposed to 80° C. (thermal stability); conditions: oven at 80° C., 15 and 41 hours vs unexposed, Renishaw Raman Spectrometer
Method: In the following examples, drug candidate stability is evaluated using non-destructive tests to track any change in property over time while exposed to a condition. Fluorescence, Raman, powder X-ray diffraction, near-IR, mid-IR, UV-Vis absorbance, and colorimetry are used. A change in the peak intensity for these tests is measured for the samples before exposure and during exposure.
Two 20 ml vials containing approximately 10 mg each of Amoxicillin, two 20 ml vials containing approximately 10 mg each of Ampicillin trihydrate and two 20 ml vials containing approximately 10 mg each of Caphalexin hydrate were prepared and placed in an oven at 80° C. One vial of each compound was removed from the oven after 15 hours of exposure, and the other vial of each compound was removed from the oven after 41 hours. Approximately 2 mg samples from each of the vials were placed in discreet regions of a Universal ⋄ Substrate™. Approximately 2 mg of unexposed Amoxicillan, Ampicillin trihydrate and Cephalexil hydrate were also placed in discreet regions of the Universal ⋄ Substrate™. The Raman scattering response and the fluorescence emission response of the samples were measured using a Renishaw Raman Spectrometer.

[2] = Powder X-ray diffraction of exposed and unexposed drug sample (thermal stability, crystallinity); conditions: solid, oven 216 hours at 100 C vs unexposed
Method: Approximately 2 mg of Amoxicillin was placed on a Universal ⋄ Substrate™ and exposed in an oven for 216 hours at 100 C. After the sample was removed from the oven, approximately 2 mg of unexposed sample was also on the placed on the Universal ⋄ Substrate™. The X-ray powder diffraction (XRD) patterns for the exposed and unexposed samples were collected on a Bruker D-8 C2 X-ray diffractometer.

[3] = FT-Raman of solid drug samples exposed to 80° C. (thermal stability); conditions: heated for 216 hours at 80° C. vs unexposed
Excerpt: The change in FT-Raman signal is used to measure the rate of drug decomposition and the chemical stability of the drug candidate.

amplitude of the fluorescence emission as a function of heating time [1]	crystallinity (powder diffraction intensity) after exposure [2]	change of FT-Raman spectrum after heating [3]	Structure (SMILES)
increased significantly	almost completely lost	changes significantly	CC1(C)S[C@@H]2[C@H](NC(=O)[C@H](N)c3ccc(O)cc3)C(=O)N2[C@H]1C(=O)O [Amoxicillin]
increased significantly	–	–	CC1(C)S[C@@H]2[C@H](NC(=O)[C@H](N)c3ccccc3)C(=O)N2[C@H]1C(=O)O [Ampicillin trihydrate]
increased significantly	–	–	CC1=C(C(=O)O)N2C(=O)[C@@H](NC(=O)[C@H](N)c3ccccc3)[C@H]2SC1 [Cephalexin hydrate]
